Values quoted from earlier work as cited in paper PMC3009454 (Bioconjugate chemistry, 2009).

Test system: primary melanoma and pulmonary melanoma metastases
Conditions: small animal SPECT/CT

In the case of “^111In-1,4,7,10-tetraazacyclododecane-1,4,7,10-tetraacetic acid-c[Lys-Nle-Glu-His-DPhe-Arg-Trp-Gly-Arg-Pro-Val-Asp] (sidechain bridge or staple) [^111In-DOTA-GlyGlu-CycMSH]”, the “SPECT/CT visualization of primary melanoma and pulmonary melanoma metastases” value is listed as “clearly visualized”.
